Measurements: publication PMC11952222, “Development and comparison of single FLT3-inhibitors to dual FLT3/TAF1-inhibitors as an anti-leukemic approach” (PLOS One, 2025)
Values joined by “and” are separate entries in the source; they are usually repeats but may differ in a detail not shown here. Identical values can stand only once. Like-named read-outs stand apart in the source and are kept apart here.

What was measured:
TAF1(2) = target: T1, TAF1(2) (Homo sapiens, UniProt P21675); experiment: Eurofins/DiscoverX cell free bromodomain assay, percent control; type: binding; conditions: for per_control_1000nM TAF1(2): 1000 nM compound; for per_control_10000nM TAF1(2): 10000 nM compound
T1 construct: with specific focus on TAF1(2) bromodomain assessed by the KdELECT assay; purchased Eurofins/DiscoverX
T1 sequence (P21675 1519-1628 limits assumed): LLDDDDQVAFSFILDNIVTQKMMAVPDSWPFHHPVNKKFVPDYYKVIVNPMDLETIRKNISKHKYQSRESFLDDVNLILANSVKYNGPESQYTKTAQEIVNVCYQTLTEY
Description: (§1) The 3i-compounds underwent activity testing against a panel of 32 bromodomains using the Eurofins/DiscoverX bromoMAX assay, with specific focus on TAF1(2) bromodomain assessed by the KdELECT assay. In a similar manner, kinase activity was evaluated using a panel of 97 kinase proteins using the Eurofins/DiscoverX scanELECT and KdELECT assays, with specific focus on FLT3 protein. An 11-point 3-fold serial dilution of each test compound was prepared in 100% DMSO at 100x final test concentration and subsequently diluted to final concentration (DMSO 1%). […] Percent control was calculated using the following formula: ((test compound signal – positive control signal)/ (negative control signal – positive control signal)) × 100.

FLT3 = target: T2, FLT3 (Homo sapiens, UniProt P36888); experiment: Eurofins/DiscoverX cell free kinase assay, percent control; type: binding; conditions: for per_control_1000nM FLT3: 1000 nM compound; for per_control_10000nM FLT3: 10000 nM compound
T2 construct: purchased Eurofins/DiscoverX
T2 sequence (P36888 27-993): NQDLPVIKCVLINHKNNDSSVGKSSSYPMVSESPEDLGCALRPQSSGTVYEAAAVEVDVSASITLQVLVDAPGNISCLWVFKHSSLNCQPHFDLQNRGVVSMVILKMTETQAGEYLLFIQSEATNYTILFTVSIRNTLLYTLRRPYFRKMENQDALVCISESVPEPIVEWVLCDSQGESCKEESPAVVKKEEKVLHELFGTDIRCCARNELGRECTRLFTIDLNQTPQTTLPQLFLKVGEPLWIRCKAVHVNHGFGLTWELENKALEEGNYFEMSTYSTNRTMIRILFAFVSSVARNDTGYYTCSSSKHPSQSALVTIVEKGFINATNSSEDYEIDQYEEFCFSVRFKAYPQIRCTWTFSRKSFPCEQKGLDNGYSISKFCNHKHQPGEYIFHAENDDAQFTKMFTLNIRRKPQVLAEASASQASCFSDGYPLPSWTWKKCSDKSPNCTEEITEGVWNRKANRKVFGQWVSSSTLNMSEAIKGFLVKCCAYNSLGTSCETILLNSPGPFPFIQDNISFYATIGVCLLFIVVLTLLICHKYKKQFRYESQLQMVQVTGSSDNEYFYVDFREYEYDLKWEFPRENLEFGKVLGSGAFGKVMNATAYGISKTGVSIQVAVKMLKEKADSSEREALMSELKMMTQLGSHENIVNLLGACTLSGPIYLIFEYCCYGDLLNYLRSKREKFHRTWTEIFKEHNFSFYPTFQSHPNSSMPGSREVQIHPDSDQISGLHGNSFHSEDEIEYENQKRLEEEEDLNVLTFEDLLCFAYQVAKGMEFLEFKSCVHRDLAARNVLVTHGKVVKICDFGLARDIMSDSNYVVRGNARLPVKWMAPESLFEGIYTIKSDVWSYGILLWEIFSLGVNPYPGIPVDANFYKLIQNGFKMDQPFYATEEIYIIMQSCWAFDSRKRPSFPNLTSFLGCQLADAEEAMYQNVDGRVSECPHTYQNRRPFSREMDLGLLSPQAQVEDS
Description: as §1
(§2) Fig 2 Results of 3i-compound series at concentrations of 1 µM and 10 µM in a cell free Eurofins/DiscoverX assay for kinase and bromodomain proteins. (A) Single-targeted compounds with tyrosine kinase activity but without bromodomain activity. (B) Dual-targeted compounds with both tyrosine kinase and bromodomain activity.

FLT3(ITD) = experiment: as above; type: binding; conditions: for per_control_1000nM FLT3(ITD): 1000 nM compound; for per_control_10000nM FLT3(ITD): 10000 nM compound
Description: as §1, §2

FLT3(ITD,D835V) = experiment: as above; type: binding; conditions: for per_control_1000nM FLT3(ITD,D835V): 1000 nM compound; for per_control_10000nM FLT3(ITD,D835V): 10000 nM compound
Description: as §1, §2

FLT3(ITD,F691L) = experiment: as above; type: binding; conditions: for per_control_1000nM FLT3(ITD,F691L): 1000 nM compound; for per_control_10000nM FLT3(ITD,F691L): 10000 nM compound
Description: as §1, §2

FLT3_autoinhibited = target: T3, FLT3_autoinhibited (Homo sapiens, UniProt P36888); experiment: as above; type: binding; conditions: for per_control_1000nM FLT3_autoinhibited: 1000 nM compound; for per_control_10000nM FLT3_autoinhibited: 10000 nM compound
T3 construct: purchased Eurofins/DiscoverX
T3 sequence (P36888 564-993 limits assumed): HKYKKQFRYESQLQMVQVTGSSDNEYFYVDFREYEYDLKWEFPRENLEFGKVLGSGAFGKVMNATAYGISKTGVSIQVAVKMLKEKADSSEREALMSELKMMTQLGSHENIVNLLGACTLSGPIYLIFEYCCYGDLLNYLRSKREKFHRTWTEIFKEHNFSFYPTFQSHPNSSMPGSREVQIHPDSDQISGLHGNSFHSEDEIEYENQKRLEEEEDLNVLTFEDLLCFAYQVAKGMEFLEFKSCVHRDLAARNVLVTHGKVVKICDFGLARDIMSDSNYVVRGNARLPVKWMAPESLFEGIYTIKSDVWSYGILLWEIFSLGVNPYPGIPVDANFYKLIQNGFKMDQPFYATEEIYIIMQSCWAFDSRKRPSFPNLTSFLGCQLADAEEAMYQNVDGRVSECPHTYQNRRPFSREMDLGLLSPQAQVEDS
Description: as §1, §2

PDGFRB = target: T4, PDGFRB (Homo sapiens, UniProt P09619); experiment: as above; type: binding; conditions: for per_control_1000nM PDGFRB: 1000 nM compound; for per_control_10000nM PDGFRB: 10000 nM compound
T4 construct: purchased Eurofins/DiscoverX
Description: as §1, §2

DU4475 cells = experiment: Cell viability, CellTiter Glo, DU4475; type: cell-based; conditions: for IC50: 72h; for CTG normalized_to_DMSO: fraction relative to DMSO
Description: Drug sensitivity and resistance testing in MOLM13, DU4475, HDQP1, and IGROV1 cells was conducted at the Finnish Institute for Molecular Medicine (FIMM), University of Helsinki. In brief, the effects of compounds on cell viability and cell death were quantified with Cell-Titer Glo (Promega) and CellTox Green (Promega), respectively. Compounds or vehicle control were included in cell culture medium at described concentrations for 72h using an automated liquid dispenser in 384-well format. For KASUMI-1 experiments, cells were grown in 96-well plates and similarly incubated with compounds at indicated concentrations for 72h in RPMI + 10% FCS + Gentamicin, followed by lysis and quantification of cell viability with Cell-Titer Glo (Promega).
Raw values from viability and toxicity assays were normalized to DMSO and plotted to heat maps in R using pheatmap (RRID:SCR_016418). Dose-response curves were generated using the drc package in R [40]. In brief, nonlinear modelling was performed to calculate IC50 values for each compound where possible and resulting curves from drc and experimental values were plotted using ggplot2 (RRID:SCR_014601).

[1] = one independent experiment per value, read-out: DU4475 IC50, individual dose-response curve (CellTiter Glo)
[2] = Homo sapiens, DU-4475, 72 h, mean of n = 3 independent experiments, read-out: DU4475 IC50 (CellTiter Glo)
[3] = Homo sapiens, DU-4475, 72 h, one independent experiment per value, read-out: DU4475 IC50, individual dose-response curve (CellTiter Glo)

T4 sequence (P09619 33-1106): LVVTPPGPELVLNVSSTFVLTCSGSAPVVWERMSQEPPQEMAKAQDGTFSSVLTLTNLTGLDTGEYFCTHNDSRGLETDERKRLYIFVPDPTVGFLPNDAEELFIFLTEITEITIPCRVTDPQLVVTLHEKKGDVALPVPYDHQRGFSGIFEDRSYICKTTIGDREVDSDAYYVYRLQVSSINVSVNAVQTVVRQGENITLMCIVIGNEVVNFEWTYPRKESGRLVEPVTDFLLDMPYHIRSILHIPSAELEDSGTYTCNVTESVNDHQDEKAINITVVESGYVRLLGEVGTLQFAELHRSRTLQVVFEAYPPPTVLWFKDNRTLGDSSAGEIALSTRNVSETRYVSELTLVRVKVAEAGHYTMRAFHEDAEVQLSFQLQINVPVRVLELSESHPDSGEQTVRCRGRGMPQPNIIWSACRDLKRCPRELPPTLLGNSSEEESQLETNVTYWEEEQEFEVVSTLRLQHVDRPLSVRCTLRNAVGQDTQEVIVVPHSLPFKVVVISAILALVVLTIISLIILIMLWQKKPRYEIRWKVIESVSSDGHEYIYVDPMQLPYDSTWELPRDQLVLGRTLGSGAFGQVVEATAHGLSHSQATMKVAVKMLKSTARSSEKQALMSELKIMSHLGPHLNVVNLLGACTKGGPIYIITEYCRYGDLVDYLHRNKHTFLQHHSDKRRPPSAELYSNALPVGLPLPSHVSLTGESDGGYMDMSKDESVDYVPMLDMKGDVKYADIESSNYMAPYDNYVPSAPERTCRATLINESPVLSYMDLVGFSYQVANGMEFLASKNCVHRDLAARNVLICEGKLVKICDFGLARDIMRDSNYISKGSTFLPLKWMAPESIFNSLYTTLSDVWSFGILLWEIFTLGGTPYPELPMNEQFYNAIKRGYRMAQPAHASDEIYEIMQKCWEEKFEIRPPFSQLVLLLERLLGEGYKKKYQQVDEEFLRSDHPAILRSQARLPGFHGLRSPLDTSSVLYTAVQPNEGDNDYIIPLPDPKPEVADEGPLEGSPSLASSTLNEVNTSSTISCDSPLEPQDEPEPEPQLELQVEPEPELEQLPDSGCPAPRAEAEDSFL

Compound | per_control_1000nM TAF1(2) (TAF1(2)) [percent control] | per_control_10000nM TAF1(2) (TAF1(2)) [percent control] | per_control_1000nM FLT3 (FLT3) [percent control] | per_control_10000nM FLT3 (FLT3) [percent control] | per_control_1000nM FLT3(ITD) (FLT3(ITD)) [percent control] | per_control_10000nM FLT3(ITD) (FLT3(ITD)) [percent control] | per_control_1000nM FLT3(ITD,D835V) (FLT3(ITD,D835V)) [percent control] | per_control_10000nM FLT3(ITD,D835V) (FLT3(ITD,D835V)) [percent control] | per_control_1000nM FLT3(ITD,F691L) (FLT3(ITD,F691L)) [percent control] | per_control_10000nM FLT3(ITD,F691L) (FLT3(ITD,F691L)) [percent control] | per_control_1000nM FLT3_autoinhibited (FLT3_autoinhibited) [percent control] | per_control_10000nM FLT3_autoinhibited (FLT3_autoinhibited) [percent control] | per_control_1000nM PDGFRB (PDGFRB) [percent control] | per_control_10000nM PDGFRB (PDGFRB) [percent control] | IC50 (DU4475 cells; [1]) | IC50 (DU4475 cells; [2]) [µM] | IC50 (DU4475 cells; [3]) [µM] | also measured
COc1ccc(-c2cc(NC(=O)c3ccc(C(C)(C)C)cc3)[nH]n2)cc1 [Compound 3i-1103] | 21 | 2.6 | 0 | 0 | 1.2 | 2.1 | 42 | 6 | 38 | 9.4 | 1.8 | 0.4 | 0 | 0 | 18.2 µM and 19 µM | 19.8 | 22.1 | CTG normalized_to_DMSO (DU4475 cells; DU4475, exp 1, 0.3 µM): 1.0025; CTG normalized_to_DMSO (DU4475 cells; DU4475, exp 1, 1 µM): 0.9677; CTG normalized_to_DMSO (DU4475 cells; DU4475, exp 1, 3 µM): 0.8934; CTG normalized_to_DMSO (DU4475 cells; DU4475, exp 1, 10 µM): 0.6779; CTG normalized_to_DMSO (DU4475 cells; DU4475, exp 1, 30 µM): 0.07396
Cc1cc(-c2cc(NC(=O)c3ccc(C(C)(C)C)cc3)[nH]n2)ccn1 [Compound 3i-1246, 4-(tert-butyl)-N-(3-(2-methylpyridin-4-yl)-1H-pyrazol-5-yl)benzamide] | 4.1 | 3.6 | 0 | 0.2 | 2.7 | 1.2 | 0.55 | 0.2 | 3.3 | 1.6 | 0 | 1 | 0 | 0 | 7.6 µM and 7.8 µM | 7.5 | 7.1 | –
CC(C)(C)c1ccc(C(=O)Nc2cc(-c3ccccc3)n[nH]2)cc1 [Compound 3i-1247, 4-(tert-butyl)-N-(3-phenyl-1H-pyrazol-5-yl)benzamide] | 97 | 78 | 12 | 0 | 3.2 | 12 | 11 | 0.3 | 9.7 | 0.1 | 1.1 | 0 | 0 | 0 | 2.5 µM and 2.9 µM and 2.7 µM | – | – | activity in DU4475 cells (DU4475 cells; compared to dual FLT3/TAF1(2) inhibitors 3i-1103, 3i-1246, 3i-1248): superior activity
Cn1cc(-c2cc(NC(=O)c3ccc(C(C)(C)C)cc3)n[nH]2)ccc1=O [Compound 3i-1248, 4-(tert-butyl)-N-(5-(1-methyl-6-oxo-1,6-dihydropyridin-3-yl)-1H-pyrazol-3-yl)benzamide] | 0.3 | 0.05 | 6.7 | 0.15 | 0 | 12 | 5.3 | 0.15 | 29 | 1.9 | 63 | 12 | 11 | 0.35 | 9.8 µM and 9.5 µM | 9.4 | 8.8 | –
